The source made the active and inactive calls. The calls are words filed in the database; no cut-off is given here.
How the values were obtained:
Chlamydia trachomatis [1] = assay: Antimicrobial activity against Chlamydia trachomatis Nigg infected in BALB/c mouse genital tract infection model assessed as recovery of inclusion forming units from cervicovaginal swabs at 3 mg/ml, ip administered on days 42 to 56 days postinfection; type: functional, organism-based
Chlamydia trachomatis [2] = assay: Effect on chlamydial plasmid DNA of Chlamydia trachomatis Nigg infected in BALB/c mouse genital tract infection model at 3 mg/ml, ip administered on days 10 to 24 days postinfection by nested PCR; type: functional, organism-based
Chlamydia trachomatis [3] = assay: Antimicrobial activity against Chlamydia trachomatis Nigg infected in BALB/c mouse genital tract infection model assessed as severe oviduct dilation at 3 mg/ml, ip administered on days 42 to 56 days postinfection; type: functional
Chlamydia trachomatis [4] = assay: Effect on chlamydial plasmid DNA of Chlamydia trachomatis Nigg infected in BALB/c mouse genital tract infection model at 3 mg/ml, ip administered on days 42 to 56 days postinfection by nested PCR; type: functional, organism-based
Chlamydia trachomatis [5] = assay: Antimicrobial activity against Chlamydia trachomatis Nigg infected in BALB/c mouse genital tract infection model assessed as recovery of inclusion forming units from cervicovaginal swabs at 3 mg/ml, ip administered on days 10 to 24 days postinfection; type: functional, organism-based
Chlamydia trachomatis [6] = assay: Antimicrobial activity against Chlamydia trachomatis Nigg infected in BALB/c mouse genital tract infection model assessed as severe oviduct dilation at 3 mg/ml, ip administered on days 10 to 24 days postinfection; type: functional

## C[C@H]1c2cccc(O)c2C(=O)C2=C(O)[C@]3(O)C(=O)C(C(N)=O)=C(O)[C@@H](N(C)C)[C@@H]3[C@@H](O)[C@@H]21.O [DOXYCYCLINE]
Chlamydia trachomatis [1]
  Activity: Active
Chlamydia trachomatis [2]
  Activity: inactive
Chlamydia trachomatis [3]
  Activity: 80%
Chlamydia trachomatis [4]
  Activity: inactive
Chlamydia trachomatis [5]
  Activity: Active
Chlamydia trachomatis [6]
  Activity: 30%
